pIC50: −log10 of the molar value. Where two headings read alike, the source gives them in different places.
How the values were obtained:
LTC4 = assay: In vivo murine zymosan peritonitis assay, LTC4 (lipoxygenase pathway); design: species or system mouse (male CD-1)
Description: The compounds of the invention are evaluated for their ability to inhibit the lipoxygenase and/or cyclooxygenase pathways of arachidonic acid metabolism in the in vivo murine zymosan peritonitis assay.
(§1) This assay is carried out as follows:
Male CD-1 mice (8 weeks old) are placed in plastic boxes in groups of six. Animals are injected with 1 ml i.p. of either 1% zymosan in pyrogen free 0.9% saline or saline (unstimulated control). Compounds are dosed orally 1 hour prior to zymosan injection. Twenty minutes after zymosan injection, the mice are asphyxiated by CO2 inhalation and the peritoneal cavity is lavaged with 2 ml ice cold Hanks Balanced Salt Solution (HBSS) without CaCl2, MgSO4 ·7H2 O and MgCL2 ·6H2 O. Peritoneal lavage fluid from each mouse is removed by syringe and placed in 5 ml plastic test tubes put on ice and volume is noted. Preparation of samples for evaluation by ELISA is as follows: Samples are centrifuged at 800×g for 15 minutes; 1 ml of the supernatant is added to 8 ml ice cold methanol and kept at -70° C. overnight to precipitate protein; and samples are then centrifuged at 800×g for 15 minutes, followed by a drying procedure in a Savant speed vac concentrator. The samples are reconstituted with 1 ml ice cold ELISA buffer and stored at -70° C. until assayed. The assay for eicosanoids (LTC4 and 6-keto-PGF1α) is performed according to conventional ELISA procedures.
Compounds to be tested orally are suspended in 0.5% Tween 80. Compounds to be tested intraperitoneally are suspended in 0.5% methylcellulose in 0.9% saline.
The total metabolite level in lavage fluid/mouse is calculated and the significance is determined by a one-way analysis of variance with LSD comparisons to control (p≤0.05). Drug effects are expressed as a percent change from control values.

human platelet PLA2 = target: T1, human platelet PLA2 (Homo sapiens, UniProt P14555); assay: In vitro isolated phospholipase A2 assay, human platelet PLA2 (arachidonic acid release from 3H-AA E. coli substrate); format: biochemical
T1 construct: Semipurified human platelet acid extract PLA2; from tissue; host or cells: human platelets (semipurified acid extract)
T1 sequence (P14555 21-144): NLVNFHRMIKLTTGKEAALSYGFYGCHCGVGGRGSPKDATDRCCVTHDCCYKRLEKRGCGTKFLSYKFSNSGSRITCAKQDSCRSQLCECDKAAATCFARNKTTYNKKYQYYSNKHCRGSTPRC

carrageenan paw edema = assay: Rat carrageenan paw edema assay; format: in vivo, rat (male Sprague-Dawley)
Description: The compounds of the invention are further tested in the rat carrageenan paw edema assay to determine their ability to inhibit the acute inflammatory response.
as §1
140-180 gm Male Sprague-Dawley rats, in groups of 6 animals are injected subcutaneously in the right paw with 0.1 ml of 1% carrageenan at zero time. Mercury plethysmographic readings (ml) of the paw are made at zero time and 3 hours later. Test compounds are suspended or dissolved in 0.5% methylcellulose and given perorally 1 hour prior to carrageenan administration.
The increase in paw volume (edema in ml) produced by the carrageenan is measured. Paw edema is calculated (3 hour volume minus zero time volume), and percent inhibition of edema is determined. Unpaired Student's t-test is used to determine statistical significance.

[1] = tested on: Rat Peritonitis Fluid PLA2; assay: In vitro isolated phospholipase A2 assay, rat peritonitis fluid PLA2; format: biochemical
Pancreatic Lipase PLA2 = assay: In vitro isolated phospholipase A2 assay, pancreatic lipase PLA2; format: biochemical
[2] = tested on: TxB2 synthesis (cyclooxygenase) by rat glycogen-elicited polymorphonuclear leukocytes; assay: Inhibition of TxB2 synthesis by rat glycogen-elicited PMN (cyclooxygenase); format: cell-based, rat (female Wistar); conditions: read-out: IC50 (TxB2 synthesis)
Description: Rat polymorphonuclear leukocytes (PMNs) are obtained from female Wistar rats (150-200 g) which receive an injection of 6% glycogen (10 ml i.p.). Rats are sacrificed 18-24 hours post injection by CO2 asphyxiation and the elicited cells are harvested by peritoneal lavage using physiological saline (0.9% NaCl). The exudate is centrifuged at 400×g for 10 minutes. The supernatant fluid is discarded and the cell pellet is resuspended to a concentration of 2.0×10^7 cells/ml in HBSS containing Ca^++ and Mg^++ and 10 μM L-cysteine.
To 1 ml aliquots of cell suspension, test drugs or vehicle are added, then preincubated at 37° C. for 10 minutes. A 23187 (1 μM), [^3 H]-AA (3.0 μCi/ml) and unlabeled AA (1 μM) are then added and the samples are further incubated for 10 minutes. The reaction is terminated by centrifugation and pelleting cells. Supernatants are then analyzed by HPLC analysis on a 15 cm×4.6 mm ID supelcosil LC-18 (Supelco)(3M) column, using a two solvent system at a flow rate of 1.4 ml total flow as follows:
Percent solvent changes are accomplished in a linear fashion.
Injections: 150 μl of each supernatant is injected directly onto column and ^3 H arachidonic acid metabolites are monitored using an on-line radioactivity detector (Ramona, IN/US, Fairfield, NJ).
Standards: 10^4 -2.0×10^4 dpm of eicosanoids of interest are injected in 90 μl EtOH cocktail.
Co-chromatography with standard [^3 H] leukotriene B4 (LTB4) in medium of stimulated PMN exposed to drug is compared to that found in medium of stimulated cells exposed to no drug, generating percent inhibition.
Results are expressed as percent inhibition at a given compound dose or as an IC50 value.
In this assay, the procedure of Example 19 is carried out as described. However, in order to determine cyclooxygenase activity, the samples are co-chromatographed with authentic reference [^3 H]-TxB2.
The results are calculated as in Example 19 and presented below: […]

[3] = Rat acute gastroirritation assay; design: species or system rat (male Sprague Dawley); conditions: in vivo, po, gastric intubation, read-out: UD50
Description: The compounds of the invention are tested in the rat acute gastroirritation assay to examine their potential for causing gastric irritation when administered at doses exceeding the effective dose.
as §1
Male Sprague Dawley rats (190-220 g) are fasted for 18 hours prior to drug administration. Rats are divided into groups of 8 and coded (i.e., observer of gastric lesions is not aware of drug treatment). Drugs are dissolved or suspended in 0.5% Tween 80 and administered by gastric intubation in a volume of 1 ml/100 g body weight, control rats receiving only Tween 80. Four hours after drug administration, rats are evaluated by recording the incidence and severity of gastroirritation using the following scoring system: 0) No irritation or lesions; 1) irritation (redness); 2) ≤5 lesions (ulcers); and 3) >5 lesions. Dunnett's test (α=0.05) is used to calculate the mean ±SE of each test group and the statistical significance.

SMILES: O=C(O)Cc1cc(OCc2ccc3ccccc3n2)ccc1Nc1c(Cl)cccc1Cl [Example 2, 2-[(2,6-Dichlorophenyl)amino]-5-(2-quinolylmethoxy)benzene acetic acid]
- % Inhibition LTC4 (LTC4; 50 mg/kg p.o.): 47%
- % Inhibition LTC4 (LTC4; 100 mg/kg p.o.): 78%
- inhibition at 10 µM (human platelet PLA2; 10 μM, Table IV, read-out: % Inhibition at a concentration of 10 μM, HP): 12.7%
- % Inhibition (carrageenan paw edema; 25 mg/kg peroral): 63%
- % Inhibition (carrageenan paw edema; 50 mg/kg peroral): 58%
- % Inhibition (carrageenan paw edema; 100 mg/kg peroral): 66%
- % Inhibition at a concentration of 10 μM, Rat Peritonitis Fluid [1]: 69.7%
- % Inhibition at a concentration of 10 μM, Pancreatic Lipase (Pancreatic Lipase PLA2): 90.1%
- pIC50 ([2]; rat PMN, acetic acid): ~5.00

SMILES: O=C(O)Cc1ccccc1Nc1c(Cl)cccc1Cl [diclofenac, reference compound]
- TD50 at 4 h [3]: 20 mg/kg
- inhibition at 10 µM (human platelet PLA2; read-out: % Inhibition at 10 μM HP): 23%
- % Inhibition (carrageenan paw edema; 0.5 mg/kg peroral): 15%
- % Inhibition (carrageenan paw edema; 2.0 mg/kg peroral): 50%
- % Inhibition (carrageenan paw edema; 8.0 mg/kg peroral): 75%
- ED50 (carrageenan paw edema; Rattus norvegicus, po, 3 h): 2.3 mg/kg
- pIC50 ([2]; Rattus norvegicus, Leukocyte): 7.52
